# Data as given in patent publication US20130029928A1 (priority 2010, published 2013).
# Where two headings read alike, the source gives them in different places.
# Experiment: Phase I study CXR1002-001: plasma pharmacokinetics (LC-MS/MS)
# Type: in vivo, human
# Conditions: human, plasma, oral; for concentration at 168 h: 168 hr (Day 8)
# Source text: PK samples, PD (fasting) samples, blood glucose, and blood triglyceride samples, were taken over a 6-week period.
# Dose limiting toxicity (DLT) will be based on the toxicity assessments over the first 3-week period of the repeat dosing schedule. PK samples (single blood sample) were taken on the following basis: • Every 6 weeks during the repeat dosing phase • If dosing is interrupted or stopped, samples will be taken at intervals according to patient convenience • PK sampling for safety evaluation may take place at any time, as clinically indicated
# Plasma samples were collected after the single 50 mg dose at the following timepoints: Pre-dose, and then 0.25, 0.5, 0.75, 1, 1.5, 2, 3, 4, 6, 24, 48, and 72 hours after administration and then once weekly at weeks 2, 3, 4, 5, and 6 (days 8, 15, 22, 29, and 36). For patients treated with the weekly repeat dose, plasma samples were collected at the following timepoints: Pre-dose and then 2, 3, 4 and 24 hours after administration for a total of 6 weeks. Thereafter a single sample was collected every 6 weeks for monitoring of exposure during long term treatment. Plasma samples were processed at site and stored at −80° C. prior to batch shipment to the analytical laboratory.
# [1] = 50 mg, Patient 004 Dose 50 mg, read-out: Concentration
# [2] = 100 mg, Patient 005 Dose 100 mg, read-out: Concentration
smiles,measurement,setting,value
O=C(O)C(F)(F)C(F)(F)C(F)(F)C(F)(F)C(F)(F)C(F)(F)C(F)(F)F [CXR1002],concentration at 0.5 h,"50 mg, Patient 003 Dose 50 mg, 0.5 hr",11.3 µM
same,concentration at 0.75 h,"50 mg, Patient 003 Dose 50 mg, 0.75 hr",17.1 µM
same,concentration at 1 h,"50 mg, Patient 003 Dose 50 mg, 1 hr",20.7 µM
same,concentration at 1.5 h,"50 mg, Patient 003 Dose 50 mg, 1.5 hr",24.6 µM
same,concentration at 2 h,"50 mg, Patient 003 Dose 50 mg, 2 hr, read-out: Concentration",24.5 µM
same,concentration at 3 h,"50 mg, Patient 003 Dose 50 mg, read-out: Concentration",21.2 µM
same,concentration at 4 h,"50 mg, Patient 003 Dose 50 mg, 4 hr, read-out: Concentration",18 µM
same,concentration at 24 h,"50 mg, Patient 003 Dose 50 mg, 24 hr, read-out: Concentration",19.5 µM
same,concentration at 48 h,"50 mg, Patient 003 Dose 50 mg, 48 hr",18.1 µM
same,concentration at 72 h,"50 mg, Patient 003 Dose 50 mg, 72 hr",18.4 µM
same,concentration at 192 h,"50 mg, Patient 003 Dose 50 mg, 192 hr (Day 8), read-out: Concentration",8.6 µM
same,concentration at 360 h,"50 mg, Patient 003 Dose 50 mg, 360 hr (Day 15), read-out: Concentration",7.2 µM
same,concentration at 528 h,"50 mg, Patient 003 Dose 50 mg, 528 hr (Day 22), read-out: Concentration",6.5 µM
same,concentration at 696 h,"50 mg, Patient 003 Dose 50 mg, 696 hr (Day 29), read-out: Concentration",5 µM
same,concentration at 864 h,"50 mg, Patient 003 Dose 50 mg, 864 hr (Day 36), read-out: Concentration",6.5 µM
same,concentration at 0 hr,"50 mg, Patient 004 Dose 50 mg, 0 hr",0.1 µM
same,concentration at 2 hr,"50 mg, Patient 004 Dose 50 mg, 2 hr, read-out: Concentration",19.9 µM
same,concentration at 4 hr,"50 mg, Patient 004 Dose 50 mg, 4 hr, read-out: Concentration",19.3 µM
same,concentration at 24 hr,"50 mg, Patient 004 Dose 50 mg, 24 hr (Day 2), read-out: Concentration",14.4 µM
same,concentration at 168 h,[1],12.8 µM
same,concentration at 170 h,[1],35.7 µM
same,concentration at 171 h,[1],40.4 µM
same,concentration at 172 h,[1],36 µM
same,concentration at 192 h,"50 mg, Patient 004 Dose 50 mg, 192 hr (Day 9), read-out: Concentration",22.5 µM
same,concentration at 336 hr,"50 mg, Patient 004 Dose 50 mg, 336 hr (Day 15), read-out: Concentration",21.8 µM
same,concentration at 338 hr,"50 mg, Patient 004 Dose 50 mg, 338 hr, read-out: Concentration",31.1 µM
same,concentration at 339 hr,"50 mg, Patient 004 Dose 50 mg, 339 hr, read-out: Concentration",38.8 µM
same,concentration at 340 hr,"50 mg, Patient 004 Dose 50 mg, 340 hr, read-out: Concentration",40.6 µM
same,concentration at 360 hr,"50 mg, Patient 004 Dose 50 mg, 360 hr (Day 16), read-out: Concentration",38.8 µM
same,concentration at 504 h,"50 mg, Patient 004 Dose 50 mg, 504 hr (Day 22), read-out: Concentration",33.4 µM
same,concentration at 506 h,"50 mg, Patient 004 Dose 50 mg, 506 hr, read-out: Concentration",46.3 µM
same,concentration at 507 h,"50 mg, Patient 004 Dose 50 mg, 507 hr, read-out: Concentration",50.4 µM
same,concentration at 508 h,"50 mg, Patient 004 Dose 50 mg, 508 hr, read-out: Concentration",47.9 µM
same,concentration at 528 h,"50 mg, Patient 004 Dose 50 mg, 528 hr (Day 23), read-out: Concentration",50 µM
same,concentration at 672 hr,"50 mg, Patient 004 Dose 50 mg, 672 hr (Day 29), read-out: Concentration",52.3 µM
same,concentration at 674 hr,"50 mg, Patient 004 Dose 50 mg, 674 hr, read-out: Concentration",65.8 µM
same,concentration at 675 hr,"50 mg, Patient 004 Dose 50 mg, 675 hr, read-out: Concentration",61.7 µM
same,concentration at 676 hr,"50 mg, Patient 004 Dose 50 mg, 676 hr, read-out: Concentration",56.7 µM
same,concentration at 696 hr,"50 mg, Patient 004 Dose 50 mg, 696 hr (Day 30), read-out: Concentration",77.5 µM
same,concentration at 840 h,"50 mg, Patient 004 Dose 50 mg, 840 hr (Day 36), read-out: Concentration",63 µM
same,concentration at 842 h,"50 mg, Patient 004 Dose 50 mg, 842 hr, read-out: Concentration",78.6 µM
same,concentration at 843 h,"50 mg, Patient 004 Dose 50 mg, 843 hr, read-out: Concentration",80.5 µM
same,concentration at 864 h,"50 mg, Patient 004 Dose 50 mg, 864 hr (Day 37), read-out: Concentration",81.1 µM
same,half-life,"50 mg, after a single dose, 6 week sampling period, read-out: half-life of elimination",> 42 days
same,concentration at 0 h,"100 mg, Patient 005 Dose 100 mg, 0 hr",0.23 µM
same,concentration at 2 h,"100 mg, Patient 005 Dose 100 mg, 2 hr, read-out: Concentration",19.8 µM
same,concentration at 3 h,[2],23 µM
same,concentration at 4 h,"100 mg, Patient 005 Dose 100 mg, 4 hr, read-out: Concentration",23.7 µM
same,concentration at 24 h,"100 mg, Patient 005 Dose 100 mg, 24 hr (Day 2), read-out: Concentration",19.9 µM
same,concentration at 168 h,[2],19 µM
same,concentration at 170 h,[2],42.9 µM
same,concentration at 171 h,[2],50.8 µM
same,concentration at 172 h,[2],45.7 µM
same,concentration at 192 h,"100 mg, Patient 005 Dose 100 mg, 192 hr (Day 9), read-out: Concentration",34.4 µM
same,concentration at 336 h,"100 mg, Patient 005 Dose 100 mg, 336 hr (Day 15), read-out: Concentration",47.8 µM
same,concentration at 338 h,"100 mg, Patient 005 Dose 100 mg, 338 hr, read-out: Concentration",80.2 µM
same,concentration at 339 h,"100 mg, Patient 005 Dose 100 mg, 339 hr, read-out: Concentration",70.1 µM
same,concentration at 340 h,"100 mg, Patient 005 Dose 100 mg, 340 hr, read-out: Concentration",53.9 µM
